Read-outs that look alike come from different tables or passages of the source.
Tests used:
[1] = test system: ABCA1, ABCG1, ABCG5, ABCG8 gene expression; assay: LXR targeting gene expression by real time RT-PCR in primary hepatocytes; type: cell-based, mouse
Source text: FIG. 10. ABCA1 (A1), ABCG1 (G1), LDL receptor (LDLR), ABCG5 (G5), and ABCG8 (G8) gene expression in primary mouse hepatocytes following addition of the purified nuclear oxysterol. At 24 hrs following the addition, cells were harvested and total RNAs were extracted and gene expression levels were quantitated by real time RT-PCR. β-Actin mRNA was used as total mRNA internal standard. The gene expression levels in cells […] were compared with those in control cells. Ten μg of total RNA was used for cDNA preparation (RT) and 10 ng of cDNA was used for PCR. The expression levels were normalized to β-actin.
Preliminary experiments have shown that the purified nuclear oxysterol up-regulates bile acid synthesis. To further investigate the mechanism of this activity, the effect of purified 5-cholesten-3β, 25-diol 3-sulphate on gene expression of LXR-targeted cholesterol transport proteins ABCA1, ABCG1, ABCG5, ABCG8, and LDLR was investigated. Purified nuclear sulfated oxysterol was added to primary hepatocytes in culture, and mRNA levels of the transport proteins were quantitated by real time RT-PCR. The primer sets and TagMan probes for detection of mRNA levels were purchased from AB Applied Biosystem (Foster City, Calif.) and the reactions were performed on an MJ Research DNA Engine Opticon instrument.

[2] = test system: HepG2 cells; assay: Cholesterol biosynthesis from [1-14C]acetate by TLC and HPLC; type: cell-based, human; conditions: HepG2, 25HC3S 6 hrs then [14C]acetate 4 hrs
Protocol: After incubation of HepG2 cells with media containing 25HC3S for 6 hrs, cultures in 25-cm2 flasks were given 3 ml of the same fresh medium containing 5 μCi of the [1-^14C]acetate. After 4 hr incubation at 37° C., the media were removed and the cells were washed twice with phosphate-saline buffer (PBS), harvested with rubber police as described, and collected in Eppendoff tubes. The cells were sedimented by centrifugation and the pellets were washed three times by resuspension and sedimentation. The pellets were resuspended in 0.3 ml of PBS. The total lipids were extracted and separated by adding 3 volume of chloroform:methanol (v/v, 1:1). [^14C]Cholesterol and 27-hydroxycholesterol was isolated into chloroform phase and separated on TLC (tuluene:acetyl acetate, 2/3, v/v/). [1-^14C]acetate derivatives were visualized by Image Reader, Fujifilm BAS-1800 II.
[1-^14C]Acetate derivatives in the chloroform phase were analyzed by HPLC on an Ultrasphere Silica column (5μ×4.6 mm×25 cm; Backman, USA) using HP Series 1100 solvent delivery system (Hewlett Packard) at 1.3 ml/min flow rate. The column was equilibrated and run in a solvent system of hexane:isopropanol:glacial acetic acid (965:25:10, v/v/v), as the mobile phase. The effluents were collected every 0.5 min (0.65 ml per fraction) except as indicated. The counts in [^14C]acetate derivatives were determined by Scintillation Counting. […]

[3] = test system: NFκB; assay: NFκB dependent reporter gene-Luc assay in H441 cells, TNFα-induced; type: cell-based, human
Protocol: A, THP-1 macrophages were treated with 25HC3S or 25HC for 24 hrs followed by addition or no addition of TNFα for another 3 hrs. The nuclear NFκB levels were analyzed by Western blot. The data represent one typical result out of three experiments. […] The reporter gene expression was induced by incubating with 10 ng/ml of TNFα for 3 hrs. The left figure represents cells transfected with pNFκB dependent reporter gene-Luc plasmid alone; the right figure, represents cells co-transfected with PPARγ expression plasmid.
H441 cells were seeded in 96-well plates. When cell density reached 90-95%, the cells were transfected with an expression plasmid as indicated using a lipid-based FuGENE HD transfection reagent according to the manufacture (Roche, Indianapolis, Ind.). A synthetic renilla luciferase reporter, phrG-TK (Promega, Wisconsin, Wis.), was used as a luciferase internal standard. For PPRE reporter gene assay, 50 ng of pGL3-PPRE-acyl-CoA oxidase luciferase reporter, 50 ng of expression plasmid pCMX-PPARγ, and 50 ng of phrG-TK vector (internal standard) were cotransfected as per the manufacture's instruction. […] Luciferase activities were determined using the Dual-Glo Luciferase Assay System according to the manufacturer's protocol (Promega, Wisconsin, Wis.). The amount of luciferase activity was measured using a TopCount NXT Microplate Scintillation and Luminescence Counter (Packard, Meriden, Conn.) and normalized to the amount of phG-TK luciferase activity. Transfections were carried out in triplicate for each sample, and each experiment was repeated three times.

[4] = Water solubility (statement); type: physicochemical
[5] = Single peritoneal injection in mice, serum lipids and serum enzymes; type: in vivo
Protocol: Administration to female mice (20-25 g weight) was by peritoneal injection once with or without 72 μg of the nuclear oxysterol in 100 μl of 0.9% NaCl containing 3 μl of ethanol. Twelve hrs following the injection, blood was harvested for analysis of triglycerides and cholesterol.

[6] = primary hepatocytes in culture, mRNA
[7] = female mice, 72 μg peritoneal injection once, 12 hrs
[8] = in vivo, only one administration

For `C[C@H](CCCC(C)(C)O)[C@H]1CC[C@H]2[C@@H]3CC=C4C[C@@H](OS(=O)(=O)O)CC[C@]4(C)[C@H]3CC[C@]12C` [25HC3S, 5-cholesten-3β, 25-diol 3-sulphate], the “increased expression of ABCA1” value [1, 6] was 2 fold, the “increased expression of ABCG5” value [1, 6] was 1.6 fold and the “increased expression of ABCG8” value [1, 6] was 3 fold. The “expression of ABCG1” value ([1]; primary hepatocytes, compared with control cells) was “did not change”, the “free [14C]cholesterol synthesized from [14C]acetate” value [2] was “significantly decreased” and the “TNFα induction of NFκB dependent reporter gene expression” value ([3]; H441, absence of PPARγ expression plasmid) was “failed to suppress”. For the same molecule, the “reduction of TNFα induction of NFκB dependent reporter gene expression” value ([3]; H441 co-transfected with PPARγ expression plasmid) was 50%, the “suppression of NFκB reporter induction in the presence of PPARγ antagonist” value ([3]; H441 co-transfected with PPARγ, T0070907) was “the suppression was blunted” and the water solubility [4] was “water soluble”. For the same molecule, the water solubility ([4]; listed as 25-hydroxycholesterol 3-sulfate) was “water-soluble”, the “activities of alkaline phosphotase, SGPT and SGOT in sera” value ([5]; female mice, 72 μg peritoneal injection once) was “did not increase” and the “decrease of cholesterol levels in serum” value [5, 7] was 15%. The “decrease of triglycerides in serum” value [5, 7] was 40%, the HDL [5, 8] was “significantly increases” and the decrease of serum cholesterol and triglyceride [5, 8] was 20%.
